These are literature values, as cited in the CATMoS acute toxicity set (Mansouri et al. 2021).

As usually defined, the LD50 is the dose at which mortality reaches 50%.

Values joined by “and” are separate entries in the source; they are usually repeats but may differ in a detail not shown here. Identical values can stand only once.

This data set can be described thus: rat acute oral toxicity. The conditions noted are these: in vivo.
Turning to `Nc1ccc([N+](=O)[O-])c(N)c1`, the 50% lethal dose (LD50) was 4500 mg/kg.
As to `[N-]=[N+]=CC(=O)OC[C@H](N)C(=O)O`, the LD50 was 170 mg/kg.
`CC=CC#N`: the LD50 is 167 mg/kg and 501 mg/kg.
Regarding `CCSC(=O)NCCCN(C)C`, the 50% lethal dose (LD50) is 1300 mg/kg.
Regarding `CCOC(=O)Nc1ccc2c(c1)N(C(=O)CCN(CC)CC)c1ccccc1CC2`, the 50% lethal dose (LD50) is 138 mg/kg.
As for `CCCCCC/C=C/C1CC(=O)OC1=O` (configuration not stated), the LD50 is 1100 mg/kg.
As for `CC(C)N1C(=O)N(c2ccccc2)CSC1=NC(C)(C)C`, the LD50 was 2200 mg/kg.
Take `C/C=C1/C[C@@H](C)[C@](O)(CO)C(=O)OCC2=CC[N+]3([O-])CC[C@@H](OC1=O)[C@@H]23` (some centres not stated): the LD50 was 48 mg/kg.
On to `COP(=S)(OC)Sc1ccc(Cl)cc1`, for which the 50% lethal dose (LD50) is 500 mg/kg.
Consider `CC(C)N(CCON=C1CCCCCC1=Cc1ccccc1)C(C)C`, for which the median lethal dose (LD50) is 537 mg/kg.
As for `CCCCNP(=S)(OCC)Sc1ccccc1` (configuration not stated), the LD50 was 300 mg/kg.
For the compound `CCCCCCCCN1CCCC1=O`, the median lethal dose (LD50) is 2050 mg/kg.
Consider `CC(C(=O)O)c1ccc2oc(-c3ccc(F)cc3)nc2c1` (configuration not stated), for which the LD50 is 521 mg/kg.
For `CCOC(=O)C=Cc1ccc(Cl)cc1`, the 50% lethal dose (LD50) is 957 mg/kg.
In the case of `COC(=O)[C@H]1[C@H]2C[C@@H]3c4[nH]c5cc(OC)ccc5c4CCN3C[C@H]2C[C@H](OC)[C@@H]1OC`, the 50% lethal dose (LD50) is 182 mg/kg.
Turning to `CC(=O)CC(=O)Nc1ccc(C)cc1C`, the median lethal dose (LD50) was 3000 mg/kg.
In the case of `C=C1C(=CC=C2CCCC3(C)C2CCC3C(C)CCCC(O)(C(F)(F)F)C(F)(F)F)CC(O)CC1O` (configuration not stated), the LD50 was 0.0417 mg/kg.
Turning to `CCCCCCCCCCNCCCCCCCC`, the LD50 was 2400 mg/kg.
On to `COC(=O)C=CC(=O)OC`, for which the LD50 was 2240 mg/kg.
As for `CCCCOC(=O)CC#N`, the 50% lethal dose (LD50) is 4180 mg/kg.
Take `COc1ccc(NS(=O)(=O)c2ccc(N)cc2)nn1`: the LD50 was 2740 mg/kg.
Turning to `C[C@@H]1CCC[C@H](C)N1CCCC(O)(c1ccccc1)c1ccccn1` (some centres not stated), the LD50 was 251 mg/kg.
`C=Cc1ccc(OC(C)=O)cc1`: the LD50 was 1500 mg/kg.
For the compound `Cc1cc(C(C)(C)C)cc(C)c1CC1=NCCN1`, the LD50 was 230 mg/kg.
For `CN(C)C(=O)CN1C(=O)C2C3C=C(C(O)(c4ccccc4)c4ccccn4)C(C3=C(c3ccccc3)c3ccccn3)C2C1=O` (configuration not stated), the LD50 was 5.9 mg/kg.
In the case of `CC(=O)O[C@H]1C[C@@H]2CC[C@@H]3[C@H](CC[C@@]4(C)[C@H]3C[C@H]([N+]3(C)CCCCC3)[C@@H]4OC(C)=O)[C@@]2(C)C[C@@H]1[N+]1(C)CCCCC1`, the 50% lethal dose (LD50) was 202 mg/kg.
For `CCCCCCCCCCCCCCCCC[N+](C)(C)C`, the LD50 is 3650 mg/kg.
For the compound `Cc1ccccc1-c1nnc(NN)s1`, the LD50 was 120 mg/kg.
As for `CC1OCC(CN(C)C)O1` (configuration not stated), the LD50 is 575 mg/kg.
Regarding `OCCC1CCN(CCC=C2c3ccc(F)cc3Sc3ccc(C(F)(F)F)cc32)CC1`, the median lethal dose (LD50) is 1.5 mg/kg.
Regarding `COP(N)(=S)Oc1cc(Cl)c(Cl)cc1Cl` (configuration not stated), the LD50 is 700 mg/kg.
As for `CCCCCCOC(=O)C(O)c1ccccc1` (configuration not stated), the median lethal dose (LD50) is 17000 mg/kg.
Regarding `C=C(OP(=O)(OCC)OCC)P(=O)(OC)OC`, the 50% lethal dose (LD50) was 173 mg/kg.
As for `CCCCCCCCCCCCCCCC[N+](C)(C)CC`, the LD50 is 500 mg/kg.
Consider `CCCN(CCC)c1c([N+](=O)[O-])cc(C(F)(F)F)cc1[N+](=O)[O-]`, for which the LD50 is 1930 mg/kg.
For the compound `C1CSCCO1`, the median lethal dose (LD50) was 2830 mg/kg.
Take `CC(=O)NNc1ccc(N)cc1`: the LD50 was 10 mg/kg.
For the compound `CCCCC(CC)COC(CBr)c1ccccc1` (configuration not stated), the 50% lethal dose (LD50) is 250 mg/kg.
For the compound `Cc1ccccc1C1OCC(O)CO1` (mixture of isomers), the LD50 was 3400 mg/kg.
As for `CC1CC2OC2CC1COC(=O)CCCCC(=O)OCC1CC2OC2CC1C` (configuration not stated), the LD50 is 4290 mg/kg.
As for `CCN(CC)CCOc1ccccc1C(=O)CCc1ccccc1`, the LD50 is 716 mg/kg.
In the case of `CCCc1ccc(OC)cc1`, the 50% lethal dose (LD50) was 4400 mg/kg.
In the case of `CC1(C)CNC(=NN=C(/C=C/c2ccc(C(F)(F)F)cc2)/C=C/c2ccc(C(F)(F)F)cc2)NC1`, the 50% lethal dose (LD50) was 1130 mg/kg.
On to `CNCCCC1c2ccccc2CN(C)c2ccccc21` (configuration not stated), for which the median lethal dose (LD50) is 331 mg/kg.
Turning to `CCNc1nc(NC(C)(C)C)nc(SC)n1`, the LD50 was 2040 mg/kg.
Consider `Nc1cnn(-c2ccccc2)c(=O)c1Br`, for which the 50% lethal dose (LD50) was 8500 mg/kg.
On to `O=S(=O)(Cl)c1ccccc1`, for which the 50% lethal dose (LD50) is 1960 mg/kg.
With `CNC(=O)Oc1ccccc1OC(CCl)OC` (configuration not stated), the LD50 was 35.4 mg/kg.
As for `NC(N)=Nc1nc(CSCCC(N)=NS(N)(=O)=O)cs1`, the median lethal dose (LD50) is 4050 mg/kg.
For the compound `CC(=O)OC1CCCCC1`, the LD50 is 6730 mg/kg.
Turning to `CCC1(C)C(=O)N(CC2CO2)C(=O)N1CC1CO1` (configuration not stated), the LD50 was 250 mg/kg.
As for `CCOC(=S)SCSSCP(=O)(OCC)OCC`, the LD50 is 14 mg/kg.
As to `CCOC(=O)CC(C)(C)C(Cl)C=C(Cl)Cl` (configuration not stated), the LD50 is 3170 mg/kg.
As to `Ic1nc(I)c(I)[nH]1`, the LD50 is 278 mg/kg.
Take `C[N+](C)(C)CCO`: the LD50 was 6640 mg/kg.
In the case of `CNC1(c2ccccc2Cl)CCCCC1=O` (configuration not stated), the 50% lethal dose (LD50) was 447 mg/kg.
`O=C(NN=C1C=CC(=NO)C=C1)c1ccccc1`: the 50% lethal dose (LD50) was 100 mg/kg.
